From patent US5053070A, “Pyrimidine derivatives, preparation processes thereof, herbicide containing the same, and herbicidal compositions containing the same along with other active ingredient” (Mitsui Toatsu Chemicals, Incorporated, priority 1988, dated 1991)
≈ marks a conversion by molar mass, not a printed value.

Assays:
[1] = tested on: ALS (acetolactate syntase); experiment: ALS enzyme assay (Test 1); format: biochemical, barnyardgrass; details: 1,000 ppm (0.5 mg/0.5 ml)
Experimental: To determine the selectivity in enzyme level between crops and weeds, and ALS enzyme assay was conducted using pea as a representative of broadleaf crops and barnyardgrass as a representative of narrowleaf weeds.
After seeds of pea and barnyardgrass were allowed to germinate at 25° C. for 8-14 days in a dark place, partially-purified suspensions (Suspensions A) of acetolactate syntase were separately obtained from seedlings in accordance with the method described in the literature, Plant Physiology, 75, 827-831.
In a test tube, 0.5 mg of one of test compounds was weighed, followed by the addition of 0.15 ml of a 20 mM K2 HPO4 solution and 0.25 ml of a reaction substrate medium which consisted of 40 mM of K2 HPO4, 40 mM of sodium pyruvate, 1 mM of TPP, 1 mM of MgCl2 and 20 μM of FAD so that 0.4 ml of a reaction solution (Solution B) was prepared. Added to 0.4 ml of Solution B was 0.1 ml of suspension A. After the resultant mixture was shaken for 1 hour in a thermostat water bath controlled at 30° C., 50 μl of 6N sulfuric acid were added to terminate the reaction.
Next, the reaction-terminated liquid mixture was transferred into a thermostat water bath controlled at 60° C. and was heated for 15 minutes. Thereafter, 0.5 ml of a 0.5% creatine solution and 0.5 ml of a 5% alkaline α-naphthol solution were added, and the resultant mixture was maintained at 60° C. for 15 minutes. As a result, the test solution developed a pink-red color. After the above operation, the absorbance of the test solution at 525 nm was measured by a spectrophotometer (Absorbance 1 of Test Compound).
On the other hand, the absorbance (Absorbance 2 of Blank) of a solution obtained by subjecting a portion of Solution B, said portion being free of the test compound, to the above operation and the absorbance (Absorbance 3 of sulfuric acid terminated) of another solution obtained by subjecting another portion of Solution B, said portion containing 50 μl of 6N sulfuric acid as a test compound, were measured at the same time. Based on the values of the respective measurements, the enzyme assay at 1,000 ppm (0.5 mg/0.5 ml) of each compound was determined. [formula]

barnyardgrass = experiment: Upland foliar application test (Test 3); format: in vivo; details: 30 g ai/a, foliar spray at 2-3 leaves, 30th day
Experimental: (§1) Resin-made 1/10000-are pots were filled with the soil of an upland field. Redroot pigweed, common lambsquarters, foxtail meadow, johnsongrass, barnyardgrass, green foxtail, large crabgrass, soybean, peanut and cotton were separately seeded and were allowed to germinate in a green house. When each plant grew to the stage of 2-3 leaves, an emulsion formulated from a predetermined amount of each test compound in a similar manner to the method described in Formulation Example 11 was diluted with water to a predetermined dilution rate and then sprayed at an application rate equal to 5 l per are onto the foliage of each plant by means of a pressure-operated ULV (ultra low volume) sprayer. Influence to the crops and weeds were observed on the 30th day after the spray of the herbicides. The results are shown in Table 4 in which the degree of damages of each test plant and the degree of injury to each crop are shown in a similar manner to Test 2.

common lambsquarters = experiment: Upland foliar application test (Test 3); format: in vivo; details: 30 g ai/a, foliar spray at 2-3 leaves, 30th day
Experimental: as §1

foxtail meadow = experiment: Upland foliar application test (Test 3); format: in vivo; details: 30 g ai/a, foliar spray at 2-3 leaves, 30th day
Experimental: as §1

green foxtail = experiment: Upland foliar application test (Test 3); format: in vivo; details: 30 g ai/a, foliar spray at 2-3 leaves, 30th day
Experimental: as §1

johnsongrass = experiment: Upland foliar application test (Test 3); format: in vivo; details: 30 g ai/a, foliar spray at 2-3 leaves, 30th day
Experimental: as §1

large crabgrass = experiment: Upland foliar application test (Test 3); format: in vivo; details: 30 g ai/a, foliar spray at 2-3 leaves, 30th day
Experimental: as §1

redroot pigweed = experiment: Upland foliar application test (Test 3); format: in vivo; details: 30 g ai/a, foliar spray at 2-3 leaves, 30th day
Experimental: as §1

cotton = experiment: Upland foliar application test (Test 3), crop injury; format: in vivo; details: 30 g ai/a, foliar spray at 2-3 leaves, 30th day
Experimental: as §1

peanut = experiment: as above; format: in vivo; details: 30 g ai/a, foliar spray at 2-3 leaves, 30th day
Experimental: as §1

soybean = experiment: as above; format: in vivo; details: 30 g ai/a, foliar spray at 2-3 leaves, 30th day
Experimental: as §1

rice = experiment: Treatment of soil under submerged condition, post-emergence (Test 5), injury; format: in vivo; details: 30 g ai/a granule, 30 days later
Experimental: 1/5000-are Wagner pots were filled with soil. Seeds or tubers of barnyardgrass, Monochoria vaginalis, bulrush, Sagittaria pygmaea, Cyperus serroylnus and Eleocharis kuroguwai were seeded or planted under submerged condition. Two pairs of rice seedlings (2-3 leaf stage), which had been reared in advance, were transplanted to each pot and were allowed to grow in a green house. Each pair consisted of two rice seedlings. When the barnyardgrass grew to two-leaf stage, each pot was treated with a granule which had been prepared by processing a predetermined amount of the test composition in accordance with a similar method to the method described in Formulation Example 9. The state of emergence of weeds and the state of injury of rice were observed 30 days later.
In the table, the degrees of damages of the test plants and the degrees of injury of the rice are shown in a similar manner to Example 2.

narrowleaf waterplantain = experiment: Petri dish test (Test 6); format: in vivo; details: 336 h; seeds on filter paper, 25° C., 14 days; read-out: I80 (ppm)
Experimental: A filter paper was placed in each glass-made Petri dish having a diameter of 9 cm. A compound dissolved in acetone was added in a predetermined amount. The filter paper was then dried in air to remove acetone. Seeds of narrowleaf waterplantain were placed on the filter paper and 10 ml of water were poured into the Petri dish. The seeds were allowed to grow at 25° C. in a bright room. Fourteen days later, the state of growth of narrowleaf water-plantain was observed.
In the table, the degree of damages of the test plant was determined by comparing the state of growth of the plant with that of the plant in an untreated group and is shown in accordance with the following standard: […]

Row | SMILES | Inhibitory activity (%) Barnyardgrass [1] [%] | Herbicidal effects Barnyardgrass (barnyardgrass) | Herbicidal effects Common lambsquarters (common lambsquarters) | Herbicidal effects Foxtail meadow (foxtail meadow) | Herbicidal effects Green foxtail (green foxtail) | Herbicidal effects Johnsongrass (johnsongrass) | Herbicidal effects Large crabgrass (large crabgrass) | Herbicidal effects Redroot pigweed (redroot pigweed) | Injury Cotton (cotton) | Injury Peanut (peanut) | Injury Soybean (soybean) | Injury Rice (rice) | IC80 (narrowleaf waterplantain) [µg/mL]
1 | C=C(C)CON=Cc1ccccc1Oc1nc(OC)cc(OC)n1 [compound 5] | 64 | 5 (0-5 (Death)) | 4 (6-10 (Severe damages)) | 5 (0-5 (Death)) | 5 (0-5 (Death)) | 5 (0-5 (Death)) | 5 (0-5 (Death)) | 4 (6-10 (Severe damages)) | 0 (91-100 (No damages)) | 0 (91-100 (No damages)) | 0 (91-100 (No damages)) | 0 (91-100 (No damages)) | 17 (≈ 51.6 µM)
2 | COc1cc(OC)nc(Oc2ccccc2C=NOCc2ccc(Cl)c(Cl)c2)n1 [compound 18] | 14 | 4 (6-10 (Severe damages)) | 3 (11-40 (Medium damages)) | 4 (6-10 (Severe damages)) | 5 (0-5 (Death)) | 5 (0-5 (Death)) | 3 (11-40 (Medium damages)) | 4 (6-10 (Severe damages)) | 0 (91-100 (No damages)) | 0 (91-100 (No damages)) | 0 (91-100 (No damages)) | 0 (91-100 (No damages)) | 67 (≈ 154 µM)
3 | COc1cc(OC)nc(Oc2ccccc2C=NOCC=Cc2ccc(C(F)(F)F)cc2)n1 [compound 35] | 89 | 5 (0-5 (Death)) | 4 (6-10 (Severe damages)) | 5 (0-5 (Death)) | 5 (0-5 (Death)) | 5 (0-5 (Death)) | 5 (0-5 (Death)) | 4 (6-10 (Severe damages)) | 0 (91-100 (No damages)) | 0 (91-100 (No damages)) | 0 (91-100 (No damages)) | 0 (91-100 (No damages)) | 6 (≈ 13.1 µM)

Second part, led by results:

Row | Inhibitory activity (%) Barnyardgrass [1] [%] | SMILES | Herbicidal effects Barnyardgrass (barnyardgrass) | Herbicidal effects Common lambsquarters (common lambsquarters) | Herbicidal effects Foxtail meadow (foxtail meadow) | Herbicidal effects Green foxtail (green foxtail) | Herbicidal effects Johnsongrass (johnsongrass) | Herbicidal effects Large crabgrass (large crabgrass) | Herbicidal effects Redroot pigweed (redroot pigweed) | Injury Cotton (cotton) | Injury Peanut (peanut) | Injury Soybean (soybean) | Injury Rice (rice) | IC80 (narrowleaf waterplantain) [µg/mL]
4 | 94 | COc1cc(OC)nc(Oc2ccccc2C=NOCC=Cc2ccccc2Br)n1 [compound 40] | 5 (0-5 (Death)) | 4 (6-10 (Severe damages)) | 5 (0-5 (Death)) | 4 (6-10 (Severe damages)) | 5 (0-5 (Death)) | 4 (6-10 (Severe damages)) | 5 (0-5 (Death)) | 0 (91-100 (No damages)) | 0 (91-100 (No damages)) | 0 (91-100 (No damages)) | 1 (71-90 (Slight damages)) | 2 (≈ 4.25 µM)
5 | 23 | COc1cc(OC)nc(Oc2ccccc2C=NOCc2ccccc2)n1 [Compound No. 15] | 5 (0-5 (Death)) | 5 (0-5 (Death)) | 4 (6-10 (Severe damages)) | 5 (0-5 (Death)) | 5 (0-5 (Death)) | 4 (6-10 (Severe damages)) | 5 (0-5 (Death)) | 0 (91-100 (No damages)) | 0 (91-100 (No damages)) | 0 (91-100 (No damages)) | 1 (71-90 (Slight damages)) | 100 (≈ 274 µM)
